Each structure is given as a SMILES string.

The target in one data set is T1, CYP11A (Homo sapiens, UniProt P05108).
T1 construct: A 1.45-kb CYP11A1 gene fragment amplified as a result of the above-described reaction; expressed in transfected cells; host or cells: Escherichia coli BL21(DE3), plasmid pCYP11A-ARX (strain BL21CYP11)
T1 sequence (P05108 40-521): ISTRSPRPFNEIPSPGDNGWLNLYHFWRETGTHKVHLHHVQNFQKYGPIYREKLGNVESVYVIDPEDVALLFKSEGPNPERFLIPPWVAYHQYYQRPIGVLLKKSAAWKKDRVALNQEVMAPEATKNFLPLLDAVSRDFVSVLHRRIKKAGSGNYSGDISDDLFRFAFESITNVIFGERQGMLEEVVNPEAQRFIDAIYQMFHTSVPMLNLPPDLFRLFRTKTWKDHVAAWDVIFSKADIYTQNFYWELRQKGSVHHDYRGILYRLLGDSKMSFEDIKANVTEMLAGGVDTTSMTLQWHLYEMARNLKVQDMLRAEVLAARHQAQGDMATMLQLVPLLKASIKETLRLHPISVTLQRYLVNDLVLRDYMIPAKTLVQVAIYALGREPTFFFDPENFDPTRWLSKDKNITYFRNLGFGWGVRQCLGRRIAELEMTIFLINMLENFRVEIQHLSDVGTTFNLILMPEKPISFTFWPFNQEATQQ
Briefly: Conversion reaction of substrates by CYP11A-expressing Escherichia coli. The format is cell-based. As for the experimental part:
The Escherichia coli expression strain BP215 was inoculated into 2 ml of an M9 mix medium (Na2HPO4: 0.68%, KH2PO4: 0.3%, NaCl: 0.05%, NH4C;: 0.01%, Casamino acid: 1%, D-Glucose: 0.4%, CaCl2: 0.1 mM, MgCl2: 1 mM, Thiamine: 0.002%, FeSO4: 0.1 mM, Carbenicillin: 0.005%), and it was then subjected to shaking culture at 30° C. for 17 hours, so as to obtain pre-culture solution. 0.25 ml of this pre-culture solution was inoculated into 25 ml of the main culture medium (Na2HPO4: 0.68%, KH2PO4: 0.3%, NaCl: 0.05%, NH4Cl: 0.01%, Casamino acid: 1%, CaCl2: 0.1 mM, MgCl2: 1 mM, Thiamine: 0.002%, FeSO4: 0.1 mM, Carbenicillin: 0.005%, Overnight Express™ solution: 7%, 5-Aminolevlic acid: 0.008%) using Overnight Express™ Autoinduction System (Novagen Cat. No. 71300-4), and it was then subjected to shaking culture at 25° C. for 24 hours. 5 ml of the obtained main culture solution was centrifuged (3500 rpm, 10 minutes) to obtain cell mass, and 1 ml of CV2 buffer (50 mM (pH) potassium phosphate buffer containing glycerol: 2%, carbenicillin: 0.005%, and isopropyl β-D-1-thiogalactopyranoside: 0.1 mM) was added to the obtained cell mass. Thereafter, 0.01 ml of the methanol solution of 1% 4-cholesten-3-one and 0.02 ml of an aqueous solution of 25% methyl-β-cyclodextrin were added to the mixed solution, and the obtained mixture was then shaken at 28° C. for 5 hours for the reaction. After completion of the reaction, 4 ml of methanol was added to the reaction solution, and they were then fully mixed. The obtained mixture was centrifuged, and the upper layer was then analyzed by HPLC.
A commercially available human testis cDNA (Origene Technologies, Inc.) was used as a template, and a CYP11A1 gene was amplified by PCR using a primer CYP11A-1F (SEQ ID NO: 19) and a primer CYP11A-2R (SEQ ID NO: 20), and also using KOD plus polymerase (TOYOBO Co., Ltd.). The temperature conditions applied during the PCR were 94° C./3 min, 30 cycles of (94° C./30 sec, 55° C./60 sec, and 72° C./90sec), and 72° C./5 min.
A 1.45-kb CYP11A1 gene fragment amplified as a result of the above-described reaction was purified using QIAquick PCR purification Kit (manufactured by QIAGEN), and it was then digested with Nde I and Spe I. Thereafter, the digest was ligated to Escherichia coli expression vector pT7NS-camAB, using T4 DNA ligase, and Escherichia coli DH5α was then transformed with the obtained expression vector, so as to construct a plasmid pCYP11A-camAB. Subsequently, using T4 DNA ligase, the previously prepared bovine-derived adrenodoxin reductase protein-adrenodoxin gene (adr-adx) fragment was inserted into and ligated to each of the Spe I and Bam HI sites of the above-described plasmid, and Escherichia coli DH5a was then transformed with the obtained plasmid, so as to construct plasmid pCYP11A-ARX. Thereafter, Escherichia coli BL21(DE3) was transformed with the thus constructed plasmid, and the obtained cell strain was named as BL21CYP11. The used adx-adr fragment was amplified by PCR with a plasmid pKARX (Sawada et. al. Eur. J. Biochem. 265, 950-956,1999) as a template, using primer bAdxR-1F (SEQ ID NO: 21) and primer bAdx-2R (SEQ ID NO: 22), and also using KOD plus polymerase (manufactured by TOYOBO Co., Ltd.). The temperature condition applied during the PCR were 94° C./3 min, 25 cycles of (94° C./30 sec, 60° C./30 sec, and 72° C./120sec), and 72° C./5 min.
Each substrate was subjected to the same reaction as that of Example 6, separately, and the reaction solution was then subjected to liquid separation using 1 ml of ethyl acetate. The reaction product and the substrate were extracted, and were then analyzed by HPLC.

For the next data set, the system named is CYPSS204A. Briefly: Conversion reaction of substrates by Escherichia coli expression strain BP215. The format is cell-based, Sphingomonas subterranea NBRC 16086. As to conditions: strain BP215, 28° C., 5 hours. As for the experimental part: The temperature conditions applied during the PCR were 95° C./5 min, 30 cycles of (98° C./30 sec, 60° C./30 sec, and 68° C./2 min), and 68° C./10 min.
Analysis conditions: Using Chromolith speed rod RP18e (50×4.6 mm) column, 50%→100% CH3CN gradient (0 to 3 min) and 100% CH3CN (3 to 8 min) were used as a mobile phase, and detection was carried out at a flow rate of 2 ml/min using CAD™ (Charged Aerosol Detection) and MS.

For a further data set, the system named is CYP204A1. The experiment in a line: Conversion of 4-cholesten-3-one to progesterone by Bacillus megaterium cell mass expressing the CYP204A1 gene. As to conditions: Bacillus megaterium pXYL204CB cell suspension, 30° C., 24 hours.

As for `CC(C)CCC[C@@H](C)[C@H]1CC[C@H]2[C@@H]3CCC4=CC(=O)CC[C@]4(C)[C@H]3CC[C@]12C` [4-cholesten-3-one], the values for the added substrate remained on CYP11A (same reaction as Example 6) and in the data set on CYPSS204A were 100% and “not detected”, respectively. The Conversion rate on CYP11A (same reaction as Example 6 (28° C., 5 hours)) is 0%; in the data set on CYPSS204A (to progesterone, pregnenolone or 7-dehydropregnenolone), 78%. Also, the “accumulated amount of side-chain cleavage product” value in the data set on CYPSS204A was found to be 78.0 mg/L. Also, in the data set with CYP204A1, the “conversion rate of 4-cholesten-3-one to progesterone” value was 24.5%.

Values taken from patent US20120178124A1, “STEROL SIDE CHAIN-CLEAVING ENZYME PROTEIN AND USE THEREOF” (MITSUBISHI CHEMICAL CORPORATION, priority 2009, published 2012).
